Experimental data from paper PMC6268373, “Systematic Study of the Physicochemical Properties of a Homologous Series of Aminobisphosphonates” (Molecules, 2012).
In brackets after ≈: the same amount, converted by molar mass.

Assays:
[1] = Effect of pH on aqueous solubility; conditions: water, pH adjusted with NaOH or HCl, 21 °C, thermodynamic from solid
Experimental: A Jasco V-530 UV/Vis spectrophotometer was used for phosphorus determination at 880 nm wavelength. Filtered liquid samples were diluted to the appropriate volume with Milli-Q water and were digested with the persulphate oxidation technique in acidic medium at elevated temperature to convert aminobisphosponates to orthophosphate. In an acidic medium, ammonium molybdate and antimony potassium tartrate react with orthophosphate to form a phosphomolybdic acid that is reduced to intensively colored molybdenum blue by ascorbic acid [30].
The mixture containing an excess of the studied compound was first agitated for predetermined time with magnetic stirrer and before taking the sample mixture was allowed to stand for 24 h without stirring. The sample (about 5 mL) was taken from liquid above the solids, pH was measured and the sample was filtered through 0.2 µm membrane filter to remove any possible insoluble particles. The phosphorus concentration in the filtered sample solution was determined by using the spectrophotometric method described above.

[2] = Aqueous solubility of saturated solution at 21 °C (phosphorus determination by molybdenum blue spectrophotometry); conditions: 21 °C; for solubility at 30 min: Milli-Q water, unbuffered, water, thermodynamic from solid; for pH of saturated solution: saturated aqueous solution, agitation time 30 min
[3] = Thermal analysis (TG/DTA and TGA 7); assay type: physicochemical; conditions: for Td: 5 °C/min; for Temp. range of 1st cleavage: lower limit taken at 0.5 wt-%; for Td (decomposition onset): average from both instruments
Experimental: Thermal decomposition paths with evaluation of crystal water content were obtained parallel with two instruments; Perkin Elmer STA 6000 thermogravimetric TG/DTA and Perkin Elmer TGA 7 analyzers (Perkin Elmer, Massachusetts, USA). Measurements were carried out in an open platinum crucible (the higher 5 mm crucible was used in TG/DTA and a shallower 2 mm crucible in TGA 7) under air atmosphere (flow rate of 45 mL/min) with a heating rate of 5 °C/min over the temperature range of 25−700 °C. The temperature calibration of STA 6000 was made using melting points of indium (156.60 °C) and zinc (419.5 °C) standards. For TGA 7 magnetic Curie-point calibration technique (Alumel, Ni, Perkalloy, Fe) was used. The weight balance of both instruments was calibrated by measuring a standard weight of 50 mg at room temperature. The sample weights used in the measurements were about 4–8 mg, and for each bisphosphonate, it was attempted to keep the same on both instruments. The melting/dehydration/decomposition behavior of the compounds was also visually monitored using a Stuart Scientific SMP3 melting point apparatus.

[4] = Protonation constants by (traditional) potentiometric titration (TPT), SUPERQUAD; conditions: overall protonation, zero level H2L2−, 0.1 M NaNO3, 25 °C
Text: Results were obtained from […] as overall stability constants (log β values); following the chosen zero level H2L^2−. This zero level H2L^2− was chosen in the calculations to avoid any accumulation of errors of protonation constants at different pH ranges. The log β results for reactions (4) and (5) obtained in the final refinements are listed in Table S3 (see Supporting Information) with error limits (±3σ), number of points/number of titrations and χ^2/Σ statistics.
The details of the experiments using (traditional) potentiometric titration are presented in the Supporting Information. The results of the determination by Sirius instrument are shown in the Supporting Information. Potentiometric titrations of the compounds were performed with the PCA200 apparatus (Sirius Analytical Instruments Ltd, Forest Row, East Sussex, UK).
Table S2. The effect of pH on aqueous solubility (mg/L) of aminoalkylbis(phosphonates) […]
Solubility (g/L) of Compound
Determination of the Protonation Constants Using (traditional) Potentiometric Titration. Reagents:
Aqueous 0.1 M NaOH was prepared from Titrisol ampoules (Merck) and 0.1 M HNO3 from Convol ampoules (BDH). The background solution was prepared by dissolving NaNO3 in deionised water.
The NaNO3 and NaCl used in reference electrode were p.a. grade (Merck). The water used in the dilutions and titration solutions was purified with Milli-RO and Milli-Q water purification systems […]
Potentiometric measurements: The protonation equilibria was studied in aqueous 0.1 M NaNO3 at 25.0 ± 0.1 °C through a series of potentiometric EMF titrations carried out with a Schott-Geräte GmbH […]
The cell arrangement for the measurement of the hydrogen ion concentration [H+] was as follows:
−RE […] equilibrium solution […] GE+ (1) where GE denotes a glass electrode (Schott N2680), and RE is Hg, Hg2Cl2 […] 0.01 M NaCl, 0.09 M NaNO3. Expression (2) is valid assuming that the activity coefficients are constant.
The cell parameter E0 and the liquid junction coefficient jH, valid in acidic solutions, were determined for each titration by adding a known amount of HNO3 to the background electrolyte. The value of the liquid junction coefficient jOH, valid in basic solutions, was determined periodically. Only stable EMF readings were used in the calculations.
During the measurements of the protonation equilibria, aqueous 0.1 M NaOH or 0.1 M HNO3 was […]
Four to eight independent titrations were carried out for each ligand. The number of data points used in […]
Data treatment: Protonation and deprotonation of the ligands were controlled by addition of HNO3 or NaOH. The curves of ZH versus pH were drawn to visualize the experimental data sets. ZH describes the average number of H+ ions added or liberated per mole of ligand and is given by the relationship […]
where CH denotes the total concentration of protons calculated over the zero level H2L2−.
In the evaluation of the equilibrium constants, the following two-component equilibria were utilized:
H2L2− ⇋ H2-xL(2+x)– + xH+ , x = 1–2; β–x (4) xH+ + H2L2− ⇋ Hx+2Lx–2, x = 1–3; βx (5)
Mathematical analysis of the systems involves a search for protonation models and equilibrium constants that best describe the experimental data. The calculations were carried out with the computer […]
1200). The sample standard deviation Σ and the χ2 statistics used as criteria in the selection of the models were those provided by the program. As a means to improve the confidence level, the error limits for log β values determined in this study are reported as three times the standard deviation estimated by the program.
Figure S2. ZH vs. pH for protonation of compounds (a) 1; (b) 2; (c) 3; (d) 4 and (e) 5.

SMILES	solubility at 30 min [2] [µg/mL]	pH of saturated solution [2]	Onset temperature of first cleavage ([3]; TG/DTA, higher crucible) [°C]	Td ([3]; TG/DTA, higher crucible, air) [°C]	Temp. range of 1st cleavage ([3]; TG/DTA, higher crucible)	Onset temperature of first cleavage ([3]; TGA 7, shallow crucible) [°C]	Td ([3]; TGA 7, shallow crucible, air) [°C]	Temp. range of 1st cleavage ([3]; TGA 7, shallow crucible)	Td (decomposition onset) ([3]; air, heating rate 5 °C/min) [°C]	other results
NCCCCCCCCC(O)(P(=O)(O)O)P(=O)(O)O [Compound 6, (9-Amino-1-hydroxynonylidene)bisphosphonic acid]	2070 (≈ 6.47 mM)	2.51	77	190	33–175 °C	84	191	33–173 °C	191	solubility at 30 min ([1]; pH 0, aqueous buffer): 2100 µg/mL (≈ 6.58 mM); solubility at 30 min ([1]; pH 1, aqueous buffer): 1150 µg/mL (≈ 3.6 mM); solubility at 30 min ([1]; pH 2, aqueous buffer): 860 µg/mL (≈ 2.69 mM); solubility at 30 min ([1]; pH 3, aqueous buffer): 1170 µg/mL (≈ 3.67 mM); solubility at 30 min ([1]; pH 4, aqueous buffer): 1080 µg/mL (≈ 3.38 mM); solubility at 30 min ([1]; pH 5, aqueous buffer): 1110 µg/mL (≈ 3.48 mM); solubility at 30 min ([1]; pH 6, aqueous buffer): 1230 µg/mL (≈ 3.85 mM); solubility at 30 min ([1]; pH 7, aqueous buffer): 1190 µg/mL (≈ 3.73 mM); solubility at 30 min ([1]; pH 8, aqueous buffer): 1230 µg/mL (≈ 3.85 mM); solubility at 30 min ([1]; pH 9, aqueous buffer): 1190 µg/mL (≈ 3.73 mM); solubility at 30 min ([1]; pH 10, aqueous buffer): 1200 µg/mL (≈ 3.76 mM); solubility at 30 min ([1]; pH 11, aqueous buffer): 1270 µg/mL (≈ 3.98 mM); Temp. range of dehydration ([3]; air, heating rate 5 °C/min): 33–175 °C; onset T of dehydration ([3]; air, heating rate 5 °C/min): 81 °C; temperature at which dehydration is initiated ([3]; thermogravimetry, air): ~ 90 °C
NCCCC(O)(P(=O)(O)O)P(=O)(O)O [Compound 2, (4-amino-1-hydroxybutylidene)bisphosphonic acid, reference compound]		1.94		222	168–252 °C		225	166–253 °C	224	Onset of 1st cleavage (in parentheses) ([3]; TG/DTA, higher crucible): 222 °C; Onset of 1st cleavage (in parentheses) ([3]; TGA 7, shallow crucible): 225 °C; logβx ± 3σ, x = 1 (H3L−) [4]: 6.26 ± 0.01; logβx ± 3σ, x = 2 (H4L) [4]: 8.38 ± 0.02; logβx ± 3σ, x = 3 (H5L+) [4]: 8.98 ± 0.20; logβx ± 3σ, x = −1 (HL3−) [4]: −10.69 ± 0.01; logβx ± 3σ, x = −2 (L4−) [4]: −22.82 ± 0.02
NCCCCCCCCCCCCCCCC(O)(P(=O)(O)O)P(=O)(O)O [Compound 10, (16-Amino-1-hydroxyhexadecylidene)bisphosphonic acid]	39 (≈ 0.0934 mM)	7.79	178	178	150–248 °C	181	181	146–245 °C	180	temperature of first decomposition step (cleavage of amino group / degradation) ([3]; thermogravimetry, air): about 200 °C
